Each compound was assayed against T1, Human Recombinant Matriptase 2 (Homo sapiens, UniProt Q8IU80) (assay: Matriptase 2 fluorescence based inhibition assay, Method A (100 mM TRIS pH 9, 1 mg/mL BSA)). Settings: 1 uM compound; Assay Used = A; read-out: Mar-2 % inhibition at 1 uM.
T1 construct: purchased Enzo Life Sciences (an in-house preparation was also used) ALX-201-752-1
T1 sequence (Q8IU80 1-811): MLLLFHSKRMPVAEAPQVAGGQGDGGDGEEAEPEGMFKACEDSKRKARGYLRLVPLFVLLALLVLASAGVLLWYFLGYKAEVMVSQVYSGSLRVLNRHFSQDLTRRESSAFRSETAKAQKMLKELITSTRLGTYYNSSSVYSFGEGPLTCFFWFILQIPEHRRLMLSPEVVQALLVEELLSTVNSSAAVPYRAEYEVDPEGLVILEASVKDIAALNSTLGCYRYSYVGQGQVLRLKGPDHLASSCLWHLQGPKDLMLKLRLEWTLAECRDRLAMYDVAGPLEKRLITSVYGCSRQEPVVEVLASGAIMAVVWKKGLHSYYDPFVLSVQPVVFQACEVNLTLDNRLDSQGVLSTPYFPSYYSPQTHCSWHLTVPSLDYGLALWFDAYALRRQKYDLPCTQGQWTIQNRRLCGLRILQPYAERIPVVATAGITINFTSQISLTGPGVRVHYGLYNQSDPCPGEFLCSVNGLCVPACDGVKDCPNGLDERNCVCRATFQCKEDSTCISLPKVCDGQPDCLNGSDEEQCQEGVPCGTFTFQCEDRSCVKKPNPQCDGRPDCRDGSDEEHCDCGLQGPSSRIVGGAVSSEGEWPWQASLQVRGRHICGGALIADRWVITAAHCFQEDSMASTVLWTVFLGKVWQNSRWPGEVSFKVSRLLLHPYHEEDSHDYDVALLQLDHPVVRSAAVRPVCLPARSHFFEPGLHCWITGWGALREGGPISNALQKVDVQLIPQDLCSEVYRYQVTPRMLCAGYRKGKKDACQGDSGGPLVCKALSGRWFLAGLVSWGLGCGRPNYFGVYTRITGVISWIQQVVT
Format: biochemical
Protocol: Test compounds were evaluated for their potential to inhibit Human Recombinant Matriptase 2 (in-house and commercial protein from Enzo Life Sciences—cat log -ALX-201-752-1) using fluorescence based assay. The concentration of Recombinant Matriptase 2 and the substrate used in the assay was: 7 nM (commercial) and 15 nM (Inhouse Matriptase 2) and 100 μM (Boc-Gln-Ala-Arg-7-amido-4-methyl coumarin hydrobromide—Cat log: B4153-Sigma) respectively. The assay buffer used was 100 mM TRIS pH 9, 1 mg/mL BSA. The assay was performed using 384 well black flat bottom plate from grenier (Cat log: 781076) at 25° C. The enzyme and compound was preincubated for 30 mins, plate was read 60 mins after substrate addition at wavelength Ex: 360/Em: 480 nm. The final assay volume was 20 μl. Stock solution of compounds were initially prepared in DMSO and appropriate dilutions were made for screening and IC50 determination (final DMSO conc in the assay was 1%). All the measurements were carried out using the Spectramax M5, Molecular devices. The compounds were screened at 1 and 10 μM concentration and IC50 was determined for the interested compounds.
To determine IC50 values, dose response curves were generated by plotting percentage inhibition as a function of inhibitor concentration and the data was fitted to sigmoidal non-linear regression equation (variable slope) using Graph Pad prism software V7.

Question: Which inhibition at 1 µM does the source give for `COc1ccc2cc(Cn3c(C(=O)N[C@H]4CC[C@H](N)CC4)cc4ccc(/C(N)=N\O)cc43)ccc2c1` [Compound I-401] here?
Answer: 0 to 25%

Same assay, conditions: 1 uM; Assay Used A; read-out: Mar-2 % inhibition at 1 uM

Question: For `N=C(N)c1ccc2cc(C(=O)N[C@H]3CC[C@H](N)CC3)n(CS(=O)(=O)c3ccccc3)c2c1` [Compound I-39], which inhibition at 1 µM is on record?
Answer: 25 to 50%

Question: With `N=C(N)c1ccc2cc(C(=O)Nc3cccc(-n4ccc(C(F)(F)F)n4)c3)n(Cc3ccc(C(N)=O)cc3)c2c1` [Compound I-166] as the compound, how does the inhibition at 1 µM read?
Answer: 0 to 25%

Question: `N=C(N)c1ccc2cc(C(=O)Nc3cc(N4CCCC4)ccn3)n(Cc3ccc(C(N)=O)cc3)c2c1` [Compound I-179] was tested. Which inhibition at 1 µM did it give?
Answer: 0 to 25%

Question: For `N=C(N)c1ccc2cc(C(=O)Nc3cc(F)cc(Br)c3)n(Cc3ccc(C(N)=O)cc3)c2c1` [Compound I-126], which inhibition at 1 µM is on record?
Answer: 0 to 25%

Question: `CCc1ccc(-c2cccc(CCn3c(C(=O)N[C@H]4CC[C@H](N)CC4)cc4ccc(C(=N)N)cc43)c2)cc1` [Compound I-35] was tested. Which inhibition at 1 µM did it give?
Answer: 25 to 50%

Question: With `N=C(N)c1ccc2cc(C(=O)Nc3cccc(C(F)(F)F)c3)n(Cc3ccc(C(N)=O)cc3)c2c1` [Compound I-60] as the compound, how does the inhibition at 1 µM read?
Answer: 0 to 25%

Question: `N=C(N)c1ccc2cc(C(=O)Nc3cccc(N4CCSCC4)c3)n(Cc3ccc(C(N)=O)cc3)c2c1` [Compound I-133] was tested. Which inhibition at 1 µM did it give?
Answer: 0 to 25%

Question: For `C[C@H](NC(=O)c1cc2ccc(C(=N)N)cc2n1Cc1ccc(C(N)=O)cc1)c1ccccc1` [Compound I-72], which inhibition at 1 µM is on record?
Answer: 0 to 25%

Question: With `N=C(N)c1ccc2cc(C(=O)Nc3cccc(F)c3)n(Cc3ccc(C(N)=O)cc3)c2c1` [Compound I-62] as the compound, how does the inhibition at 1 µM read?
Answer: 0 to 25%

Question: With `N=C(N)c1ccc2cc(C(=O)Nc3cccc(-n4cc(C(F)(F)F)cn4)c3)n(Cc3ccc(C(N)=O)cc3)c2c1` [Compound I-165] as the compound, how does the inhibition at 1 µM read?
Answer: 0 to 25%

Same assay, conditions: at 1 uM; Assay Used = A; read-out: Mar-2 % inhibition at 1 uM

Question: Which inhibition at 1 µM does the source give for `N=C(N)c1ccc2cc(C(=O)N[C@H]3CC[C@H](N)CC3)n(Cc3cccc(C(=O)NCCC(=O)O)c3)c2c1` [Compound I-259, 3-(3-((2-(((1r,4r)-4-Amiocyclohexyl)carbamoyl)-6-carbamimidoyl-1H-indol-1-yl)methyl)benzamido)propanoic Acid] here?
Answer: 25 to 50%

Question: How did the inhibition at 1 µM turn out when `N=C(N)c1ccc2cc(C(=O)NCC3CCCCC3)n(Cc3ccc(B(O)O)cc3)c2c1` [Compound I-231] was run?
Answer: 0 to 25%

Question: With `N=C(N)c1ccc2cc(C(=O)N3CCC(F)(F)C3)n(Cc3ccc(C(=O)NCCN)cc3)c2c1` [Compound I-392] as the compound, how does the inhibition at 1 µM read?
Answer: 0 to 25%

Question: Which inhibition at 1 µM does the source give for `N=C(N)c1ccc2cc(C(=O)N3CCC(CCN)CC3)n(Cc3ccc(Oc4ccc(F)cc4)nc3)c2c1` [Compound I-317] here?
Answer: 25 to 50%

Question: With `N=C(N)c1ccc2cc(C(=O)N3CCC(CCN)CC3)n(S(=O)(=O)c3ccc4ccccc4c3)c2c1` [Compound I-335] as the compound, how does the inhibition at 1 µM read?
Answer: 0 to 25%

Question: `N=C(N)c1ccc2cc(C(=O)N3CC[C@H](F)C3)n(Cc3ccc(-c4ccccc4)cc3)c2c1` [Compound I-309] was tested. Which inhibition at 1 µM did it give?
Answer: 0 to 25%

Question: Which inhibition at 1 µM does the source give for `N=C(N)c1ccc2cc(C(=O)NC3CC=CCC3)n(Cc3ccc(NC(=O)CCN)cc3)c2c1` (stereo not drawn) [Compound I-264, 1-(4-(3-Aminopropanamido)benzyl)-6-carbamimidoyl-N-(cyclohex-3-en-1-yl)-1H-indole-2-carboxamide] here?
Answer: 0 to 25%

Question: For `N=C(N)c1ccc2cc(C(=O)N3CC[C@@H](N4CCOCC4)C3)n(Cc3ccc(C(N)=O)cc3)c2c1` [Compound I-333], which inhibition at 1 µM is on record?
Answer: 0 to 25%

What follows are compounds tested against T1, Human Recombinant Matriptase 2 (assay: Matriptase 2 fluorescence based inhibition assay, Method B (50 mM TRIS pH 7.5, 150 mM NaCl, 0.01% gelatin)). Settings: 1 uM compound; Assay Used = B (Method B).
Format: biochemical
Summary of the method: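 Commercial (7 nM) or in-house (15 nM) enzyme preincubated 30 min with compound at 25° C, then 100 μM Boc-Gln-Ala-Arg-AMC added; fluorescence (Ex 360/Em 480 nm) read at 60 min. 1% DMSO final. IC50 from variable-slope sigmoidal fit of % inhibition.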

Question: Which “Mar-2 % inhibition at 1 uM” value does the source give for `N=C(N)c1ccc2cc(C(=O)N[C@H]3CC[C@H](N)CC3)n(Cc3ccc(C(N)=O)c4ccccc34)c2c1` [Compound I-642] here?
Answer: C (C represents 50%≤I≤75%)

Same assay, conditions: 1 uM compound; Assay Used = B (Method B); read-out: Mar-2 % inhibition at 1 uM

Question: `Cn1c(C(=O)O)c(Cc2cccc3ccccc23)c2cc(C(=N)N)ccc21` [Compound I-689] was tested. Which inhibition at 1 µM did it give?
Answer: 75 to 100%

Question: How did the inhibition at 1 µM turn out when `CC(C)(C)Sc1cccc2c(Cn3c(C(=O)N[C@H]4CC[C@H](N)CC4)cc4ccc(C(=N)N)cc43)cccc12` [Compound I-739] was run?
Answer: 75 to 100%

Question: `Cn1c(C(=O)O)c(Cc2cccc3ccccc23)c2cc(/C(N)=N/O)ccc21` [Compound I-641] was tested. Which inhibition at 1 µM did it give?
Answer: 0 to 25%

Question: For `COc1ccc2cccc(Cn3c(C(=O)N[C@H]4CC[C@H](N)CC4)cc4ccc(C(=N)N)cc43)c2c1` [Compound I-775], which inhibition at 1 µM is on record?
Answer: 75 to 100%

Question: Which inhibition at 1 µM does the source give for `CCOC(=O)c1cc2ccc(/C(N)=N/O)cc2n1Cc1cccc2ccccc12` [Compound I-675, Ethyl (Z)-6-(N′-hydroxycarbamimidoyl)-1-(naphthalen-1-ylmethyl)-1H-indole-2-carboxylate] here?
Answer: 0 to 25%

Question: With `CO/N=C(\N)c1ccc2c(c1)c(Cc1cccc3ccccc13)c(C(=O)O)n2C` [Compound I-684] as the compound, how does the inhibition at 1 µM read?
Answer: 0 to 25%

Question: For `N=C(N)c1ccc2cc(C(=O)N[C@H]3CC[C@H](N)CC3)n(Cc3cc(Oc4ncccn4)cc4ccccc34)c2c1` [Compound I-670], which inhibition at 1 µM is on record?
Answer: 75 to 100%

Question: For `N=C(N)c1ccc2cc(C(=O)O)n(-c3ccc4ccccc4c3)c2c1` [Compound I-654], which inhibition at 1 µM is on record?
Answer: 0 to 25%

Same assay, conditions: 1 uM compound; Assay Used = B; read-out: Mar-2 % inhibition at 1 uM

Question: Which inhibition at 1 µM does the source give for `N=C(N)c1ccc2ccn(Cc3cccc4ccccc34)c2c1` [Compound I-521, 1-(naphthalen-1-ylmethyl)-1H-indole-6-carboximidamide] here?
Answer: 50 to 75%

Question: How did the inhibition at 1 µM turn out when `CC(C)(C)OC(=O)NC(=N)c1ccc2cc(C(=O)N[C@H]3CC[C@H](NC(=O)OC(C)(C)C)CC3)n(Cc3ccc(C(N)=O)cc3)c2c1` [Compound I-495] was run?
Answer: 0 to 25%

Question: With `CC(C)(C)OC(=O)N[C@H]1CC[C@H](c2nnc(-c3cc4ccc(C(=N)N)cc4n3Cc3cccc4ccccc34)o2)CC1` [Compound I-524, tert-butyl ((1r,4r)-4-(5-(6-carbamimidoyl-1-(naphthalen-1-ylmethyl)-1H-indol-2-yl)-1,3,4-oxadiazol-2-yl)cyclohexyl)carbamate] as the compound, how does the inhibition at 1 µM read?
Answer: 25 to 50%

Question: How did the inhibition at 1 µM turn out when `Cc1cc(C)nc(Oc2cc(Cn3c(C(=O)O)cc4ccc(C(=N)N)cc43)c3ccccc3c2)n1` [Compound I-570] was run?
Answer: 25 to 50%

Question: With `N=C(N)c1ccc2cc(C(=O)OCCO)n(Cc3cc(Oc4ncccn4)cc4ccccc34)c2c1` [Compound I-565] as the compound, how does the inhibition at 1 µM read?
Answer: 75 to 100%

Question: With `N=C(N)c1ccc2cc(C(=O)NCCCN3CCCCC3)n(Cc3cccc4ccccc34)c2c1` [Compound I-478] as the compound, how does the inhibition at 1 µM read?
Answer: 75 to 100%

Question: How did the inhibition at 1 µM turn out when `CN1CCC(CNC(=O)c2cc3ccc(C(=N)N)cc3n2Cc2cccc3ccccc23)CC1` [Compound I-460, 6-carbamimidoyl-N-((1-methylpiperidin-4-yl)methyl)-1-(naphthalen-1-ylmethyl)-1H-indole-2-carboxamide] was run?
Answer: 75 to 100%

Question: With `CC(C)(C)OC(=O)N[C@H]1CC[C@H](NC(=O)c2cn(Cc3cccc4ccccc34)c3cc(C(=N)N)ccc23)CC1` [Compound I-518, tert-butyl ((1r,4r)-4-(6-carbamimidoyl-1-(naphthalen-1-ylmethyl)-1H-indole-3-carboxamido)cyclohexyl) carbamate] as the compound, how does the inhibition at 1 µM read?
Answer: 0 to 25%

Same assay, conditions: at 1 uM; Assay Used = B; read-out: Mar-2 % inhibition at 1 uM

Question: With `N=C(N)c1ccc2cc(C(=O)N[C@H]3CC[C@H](N)CC3)n(S(=O)(=O)c3cccc4ccccc34)c2c1` [Compound I-396, N-((1r,4r)-4-aminocyclohexyl)-6-carbamimidoyl-1-(naphthalen-1-ylsulfonyl)-1H-indole-2-carboxamide] as the compound, how does the inhibition at 1 µM read?
Answer: 25 to 50%

Same assay, conditions: compound at 1 uM; Assay Used: B; read-out: Mar-2 % inhibition at 1 uM

Question: `N=C(N)c1ccc2cc(C(=O)N[C@H]3CC[C@H](N)CC3)n(Cc3cc(C(=O)O)cc4ccccc34)c2c1` [Compound I-806] was tested. Which inhibition at 1 µM did it give?
Answer: 50 to 75%

Same assay, conditions: read-out: Mar-2 % inhibition at 1 uM

Question: `N=C(NC(=O)Oc1ccccc1)c1ccc2cc(C(=O)O)n(Cc3cc(Oc4ncccn4)cc4ccccc34)c2c1` [Compound I-551] was tested. Which inhibition at 1 µM did it give?
Answer: 0 to 25%

Source: patent US12428415B2, “Matriptase 2 inhibitors and uses thereof” (Disc Medicine, Inc., priority 2018, dated 2025)
